{
  "source": "patent US9474759B2",
  "about": "(priority 2011, dated 2016)",
  "key": {"[1]": {"test_system": "FECV-1683", "experiment": "FECV-1683 replication in CRFK cells, TCID50 method", "format": "cell-based, feline coronavirus", "details": "Alphacoronavirus 1, MOI 0.05, mean ± SEM", "method": "Crandell Rees feline kidney (CRFK) cells were maintained in minimal essential medium containing 2-5% fetal bovine serum and antibiotics (chlortetracycline [25 μg/ml], penicillin [250 U/ml], and streptomycin [250 μg/ml]). FIPV WSU 79-1146 and FECV WSU 79-1683 strains are the prototypes of serotype II FIPV or FECV, respectively, and were purchased from ATCC (Manassas, Va.).\nThe cells were further incubated in the presence of each compound for 1 hr at 37° C. Then […] or FECV-1683 was inoculated to the cells at a multiplicity of infection (MOI) of 0.05 or 5.\nb. TCID50 Method. A standard TCID50 method with the 10-fold dilution of each sample was used for virus titration."}, "[2]": {"target": "recombinant 3C or 3CL of MD145 (Norovirus Hu/GII.4/MD145-12/1987/US (Maryland virus), UniProt Q8V0P3)", "sequence (Q8V0P3 entry or part of it)": "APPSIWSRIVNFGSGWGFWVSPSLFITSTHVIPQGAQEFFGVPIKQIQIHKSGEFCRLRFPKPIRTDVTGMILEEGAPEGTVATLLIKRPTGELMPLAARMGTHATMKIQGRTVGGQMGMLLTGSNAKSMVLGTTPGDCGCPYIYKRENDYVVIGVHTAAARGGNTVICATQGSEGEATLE", "experiment": "FRET protease assay, MD145 3CL (Example 2)", "format": "biochemical, norovirus strain MD145"}, "[3]": {"test_system": "3CLpro of NV, MD145, MNV-1", "format": "biochemical, norovirus", "details": "optimized FRET-based protease assay"}, "[4]": {"target": "NV 3CLpro (codon-optimized, full-length, N-terminal 6 His, recombinant) (Norovirus, UniProt Q83883)", "sequence (Q83883 1101-1281)": "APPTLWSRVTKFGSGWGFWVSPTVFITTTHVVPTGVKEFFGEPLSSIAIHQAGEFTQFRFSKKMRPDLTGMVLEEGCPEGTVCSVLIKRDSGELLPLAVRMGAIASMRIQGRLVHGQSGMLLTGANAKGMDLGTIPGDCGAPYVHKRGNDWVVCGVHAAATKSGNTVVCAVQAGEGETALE", "format": "biochemical, Norwalk virus (human norovirus GI)"}, "[5]": {"test_system": "EV71", "experiment": "Cell-based screening, EV71 in Vero cells (Example 2)", "parameters": "species or system enterovirus 71", "details": "Enterovirus A, EV71; Vero cells; read-out: Inhibition [ED50 (μM)] against various viruses: Picornavirus, EV71", "method": "(§1) 3. Cell-based screening of inhibitor. The effects of each inhibitor on the viral replication were examined. The list of viruses and corresponding cell lines are listed above in Table 2. Briefly, confluent cells were inoculated with virus at a MOI of 5 or 0.05 for 1 hr, and medium was replaced with medium containing mock-medium or each compound (up to 100 μM). The virus infected cells were further incubated for up to 96 hrs, and the replication of virus was measured by TCID50 assay with the 10-fold dilution of each sample used for virus titration (Reed and Muench, 1938). In some viruses, the virus protein and genome expression levels were detected by Western blot analysis and real-time qRT-PCR, respectively, as described below. The IC50s of the compounds were calculated."}, "[6]": {"test_system": "FIPV", "experiment": "Cell-based screening, FIPV in CRFK cells (Example 2)", "parameters": "species or system feline infectious peritonitis virus", "details": "Alphacoronavirus 1; CRFK cells; read-out: Inhibition [ED50 (μM)] against various viruses: Coronavirus, FIPV", "method": "as §1"}, "[7]": {"target": "HAV 3Cpro (Human hepatitis A virus genotype IB, UniProt P08617)", "sequence (P08617 1520-1738)": "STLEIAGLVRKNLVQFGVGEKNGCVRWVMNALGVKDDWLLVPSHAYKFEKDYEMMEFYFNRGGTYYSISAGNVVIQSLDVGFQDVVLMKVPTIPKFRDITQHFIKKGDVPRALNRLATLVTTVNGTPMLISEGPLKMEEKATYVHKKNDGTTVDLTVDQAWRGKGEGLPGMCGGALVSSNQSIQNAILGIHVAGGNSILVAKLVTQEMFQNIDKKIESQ", "experiment": "Optimized FRET protease assay, HAV 3Cpro (Example 3)", "format": "biochemical", "method": "Fluorogenic substrates with Edans and Dabcyl as a donor and quencher pair were purchased from Bachem (coronavirus substrate) or synthesized by GenScript. The viral proteases and the corresponding fluorogenic substrates are listed in Table 5, along with their sources.\nStock solutions (10 mM) of the substrates and the compounds were prepared in dimethyl sulfoxide (DMSO) and diluted in assay buffer. The assay buffer comprised 20 mM HEPES buffer containing NaCl (0 mM for HAV 3Cpro and 200 mM for all other proteases), 0.4 mM EDTA, Glycerol (60% for NV and MD145 3CLpro and 30% for TGEV and 229E 3CLpro), and 6 mM (NV and MD145 3CLpro and HAV 3Cpro)_or 4 mM (all other proteases) dithiothreitol (DTT) at pH 6 (coronavirus 3CLpro) or 8 (all other proteases). Each protease was mixed with serial dilutions of each compound or with DMSO in 25 μl of assay buffer and incubated at 37° C. for 30 min, followed by the addition of 25 μl of assay buffer containing substrate. Fluorescence readings were obtained using an excitation wavelength of 360 nm and an emission wavelength of 460 nm on a fluorescence microplate reader (FLx800; Biotek, Winooski, Vt.) at 1 h following the addition of substrate. The relative fluorescence units (RFU) were determined by subtracting background values (substrate-containing well without protease) from the raw fluorescence values. […]"}, "[8]": {"test_system": "229E", "experiment": "Cell-based screening, 229E in MRC-5 cells (Example 2)", "details": "Human coronavirus 229E, MRC5; MRC-5 cells; read-out: Inhibition [ED50 (μM)] against various viruses: Coronavirus, 229E", "method": "as §1"}, "[9]": {"test_system": "MHV", "experiment": "Cell-based screening, MHV in CCL-9.1 cells (Example 2)", "parameters": "species or system mouse hepatitis virus", "details": "Murine coronavirus; CCL-9.1 cells; read-out: Inhibition [ED50 (μM)] against various viruses: Coronavirus, MHV"}, "[10]": {"test_system": "FIPV-1146", "experiment": "Combination treatment of CA074-Me and GC373 on FIPV-1146 replication, MacSynergy II", "format": "cell-based, feline coronavirus", "details": "GC373 alone at 0.05 μM, FIPV-infected CRFK cells", "method": "The CRFK cells were incubated with GC373 (0.02˜0.2 μM), CA074-Me (0.5˜5 μM), or the combinations of GC373 (0.02˜0.2 μM) and CA074-Me (0.5˜5 μM) for 1 hr at 37° C. prior to inoculation of FIPV-1146 at an MOI of 0.05. After 24 hrs of incubation, virus replication was assessed with virus titration using the TCID50 method. Drug-drug interactions were analyzed by the three-dimensional model of Prichard and Shipman, using the MacSynergy II software at 95% confidence limits. Theoretical additive interactions were calculated from the dose-response curve for each compound individually, and the calculated additive surface was subtracted from the experimentally determined dose-response surface to give regions of synergistic or antagonistic interactions. The resulting surface appears as horizontal plane at 0% of synergy if the interactions of two compounds are additive. Any peak above or below this plane indicates synergy or antagonism, respectively."}, "[11]": {"test_system": "HG23 cells", "details": "human"}, "[12]": {"test_system": "Norwalk virus (HG23 cells)", "experiment": "microbe, parasite or virus in culture", "format": "cell-based", "details": "HG23, read-out: Inhibition [ED50 (μM)] against various viruses: Calicivirus, HG23 cells"}, "[13]": {"target": "TGEV 3CLpro (full-length, 6 His, recombinant) (Porcine transmissible gastroenteritis coronavirus strain Purdue, UniProt P0C6V2)", "sequence (P0C6V2 2879-3180)": "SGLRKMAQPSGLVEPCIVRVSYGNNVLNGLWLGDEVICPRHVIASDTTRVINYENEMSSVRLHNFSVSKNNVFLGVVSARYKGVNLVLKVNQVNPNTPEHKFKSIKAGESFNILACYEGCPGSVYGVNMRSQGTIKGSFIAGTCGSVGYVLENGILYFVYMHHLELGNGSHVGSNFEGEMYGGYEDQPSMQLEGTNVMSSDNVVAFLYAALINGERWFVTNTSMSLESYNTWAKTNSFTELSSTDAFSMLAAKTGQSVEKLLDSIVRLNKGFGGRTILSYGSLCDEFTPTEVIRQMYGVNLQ", "experiment": "biochemical", "parameters": "species or system transmissible gastroenteritis virus (strain Miller)"}, "[14]": {"test_system": "MNV-1", "experiment": "Cell-based screening, MNV-1 in RAW267.4 cells (Example 2)", "parameters": "species or system murine norovirus", "details": "Norwalk virus; RAW267.4 cells; read-out: Inhibition [ED50 (μM)] against various viruses: Calicivirus, MNV-1", "method": "as §1"}},
  "note": "Like-named read-outs stand apart in the source and are kept apart here.",
  "data": [
    {"smiles": "CC(C)C[C@H](NC(=O)OCc1ccccc1)C(=O)N[C@H](C=O)C[C@@H]1CCNC1=O", "note": "[GC373]", "values": [
      {"measurement": "EC50", "setting": "[1]; 24 hr post infection, read-out: Inhibition [ED50 (μM)] against FECV-1683, 24 hrs", "result": "0.04 ± 0.01", "unit": "µM"},
      {"measurement": "EC50", "setting": "[1]; 48 hr post infection, read-out: Inhibition [ED50 (μM)] against FECV-1683, 48 hrs", "result": "0.09 ± 0.01", "unit": "µM"},
      {"measurement": "IC50", "setting": "[2]", "result": 20.3, "unit": "µM"},
      {"measurement": "effect on the activity of 3CLpro of NV, MD145, MNV-1 (in words)", "setting": "[3]", "result": "highly effective"},
      {"measurement": "IC50", "setting": "[4]", "result": 0.64, "unit": "µM"},
      {"measurement": "EC50", "setting": "[5]", "result": 11, "unit": "µM"},
      {"measurement": "EC50", "setting": "[6]", "result": 0.3, "unit": "µM"},
      {"measurement": "inhibitory effect on HAV 3Cpro (in words)", "setting": "[7]", "result": "all viral proteases except HAV 3Cpro"},
      {"measurement": "EC50", "setting": "[8]", "result": 0.2, "unit": "µM"},
      {"measurement": "EC50", "setting": "[9]", "result": 2, "unit": "µM"},
      {"measurement": "reduction of virus titers", "setting": "[10]", "result": 0.5, "unit": "log10"},
      {"measurement": "TD50, median toxic dose", "setting": "[11]", "result": "> 320", "unit": "µM"},
      {"measurement": "EC50", "setting": "[12]", "result": 2.1, "unit": "µM"},
      {"measurement": "IC50", "setting": "[13]", "result": "0.99 ± 0.12", "unit": "µM"},
      {"measurement": "EC50", "setting": "[14]", "result": 6.5, "unit": "µM"}
    ]}
  ]
}
